# In US20050123936A1, “Method, composition, and kit to design, evaluate, and/or test compounds that modulate regulatory factor binding to nucleic acids” (priority 2003, published 2005):
# Ends that are not written are not given here. Hoechst 33258 analog = not defined here
# T1: extradenticle (Exd) protein (residues 238-324) (Drosophila melanogaster, UniProt P40427)
# T1 construct: comprising the homeodomain and the extended fourth helix (residues 238-324); made in house
# T1 sequence (P40427 238-324): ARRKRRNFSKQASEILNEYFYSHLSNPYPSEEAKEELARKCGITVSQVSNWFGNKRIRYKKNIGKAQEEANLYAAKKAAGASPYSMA
# T2: Exd (Drosophila melanogaster, UniProt P40427)
# T2 construct: comprising the homeodomain and the extended fourth helix (residues 238-324); made in house
# T2 sequence (P40427 238-324): T1 sequence (P40427 238-324)
# T3: Drosophila extradenticle (Exd) protein comprising the homeodomain and the extended fourth helix (residues … (Drosophila, UniProt P40427 238-324))
# T3 sequence (looked up): T1 sequence (P40427 238-324)
# T4: extradenticle (Exd) protein (Drosophila melanogaster, UniProt P40427)
# T4 construct: comprising the homeodomain and the extended fourth helix (residues 238-324); made in house
# T4 sequence (P40427 238-324): T1 sequence (P40427 238-324)
# B1: polyamide bearing an altered hook (FYPAAK) (peptide)
# peptide: FYPAAK
# modifications: also: conjugated to hairpin polyamide, linker not given here
# B2: Ubx: Drosophila ultrabithorax (Ubx) protein homeodomain (residues 233-313 of the Ubx isoform IVa) (protein, UniProt P83949 233-313, looked up, fragment)
# chain: QASNHTFYPWMAIAGECPEDPTKSKIRSDLTQYGGISTDMGKRYSESLAGSLLPDWLGTNGLRRRGRQTYTRYQTLELEKE
# modifications: isoform IVa
# B3: Composite Ubx-Exd EMSA duplex (FIG. 2d) (dsDNA)
# DNA 1: GATCTCCCGGCGAATGATTTATGGTATCGGCGCCACTGTCACCCGGA
# DNA 2: TCCGGGTGACAGTGGCGCCGATACCATAAATCATTCGCCGGGAGATC
# Assays:
# [1] = target: TGGTCA matched site on 250-bp EcoRI/PvuII restriction fragment from plasmid pDEH9; assay: Quantitative DNase I footprint titration, matched site; format: binding; details: 12 h at 22° C., TKMC buffer pH 7.0, read-out: Equilibrium Dissociation Constants Kd, TGGTCA
# Procedure: (§1) Quantitative DNaseI footprinting can be used to determine the equilibrium association constants for binding to match and mismatch sites. Footprinting experiments are generally performed on 3′- and/or 5′-^32P end restriction fragments derived from plasmids. 3′-shifted cleavage patterns are consistent with location of the polyamide in the minor groove. Typical reaction conditions are: 10 mM Tris-HCl, 10 mM KCl, 10 mM MgCl2, 5 mM CaCl2, pH 7.0, and 22° C. See Brenowitz et al. (1986). Methods Enzymol. 130:132-181; Fox & Waring (1984) Nucleic Acids Res. 12:9271-9285; and Brenowitz et al. (1986) Proc. Natl. Acad. Sci. U.S.A. 83: 8462-8466.
# DNase I Footprinting: Dissociation constants for the DNA binding of compounds 1, 2 and 3 were obtained following published protocols. All reactions were carried out in 400 μL total volume employing 20 kcpm of a 3′-radiolabelled 250-bp restriction fragment from the plasmid pDEH9 (FIG. 1a) (SEQ. ID. NO: 4). […]
# FIGS. 1b, 1c, and 1d are quantitative DNAse I footprint titration experiments for compounds 1, 2 and 3 on the 3′^−32 P-labeled 250-bp EcoRI/PvuII restriction fragment from the plasmid pDEH9. […]
# The DNA-binding properties of the compounds 1-3 were investigated by quantitative DNase 1 footprinting assays. […]
# [2] = test system: TGGCCA mismatch site on 250-bp EcoRI/PvuII restriction fragment from plasmid pDEH9; assay: Quantitative DNase I footprint titration, mismatch site TGGCCA; format: binding
# Procedure: as §1
# (§2) DNase I Footprinting: Dissociation constants for the DNA binding of compounds 1, 2 and 3 were obtained following published protocols. All reactions were carried out in 400 μL total volume employing 20 kcpm of a 3′-radiolabelled 250-bp restriction fragment from the plasmid pDEH9 (FIG. 1a) (SEQ. ID. NO: 4). No carrier DNA was used in the equilibration, and the solutions were allowed to equilibrate for 12 h at 22° C. in TKMC buffer (10 mM TRIS, 10 mM KCl, […], 5 mM CaCl2 pH 7.0) prior to the DNase I digestion. Reaction products (8 kcpm) were resolved on denaturing 8% polyacrylamide sequencing gels run at 55 W.
# (§3) FIGS. 1b, 1c, and 1d are quantitative DNAse I footprint titration experiments for compounds 1, 2 and 3 on the 3′^−32 P-labeled 250-bp EcoRI/PvuII restriction fragment from the plasmid pDEH9. Lane 1: Intact DNA. Lane 2: A-reaction. Lane 3: G-reaction. Lane 4: DNAse 1 standard.
# (§4) The DNA-binding properties of the compounds 1-3 were investigated by quantitative DNase 1 footprinting assays. The equilibrium binding constants of each of the compounds for a matched versus three single base pair mismatch sites is compiled in Table 1. The lower strand sequence is shown in the header. Mismatched base pairs are underlined. The residue under the YPWM peptide is in bold. Relative specificities are given in square brackets.
# [3] = test system: TGGGCA mismatch site on 250-bp EcoRI/PvuII restriction fragment from plasmid pDEH9; assay: Quantitative DNase I footprint titration, mismatch site TGGGCA; format: binding
# Procedure: as §1, §2, §3, §4
# [4] = test system: AGCTCA mismatch site on 250-bp EcoRI/PvuII restriction fragment from plasmid pDEH9; assay: Quantitative DNase I footprint titration, mismatch site AGCTCA; format: binding
# Procedure: as §1, §2, §3, §4
# [5] = target: T1, extradenticle (Exd) protein (residues 238-324); assay: EMSA: recruitment of Exd to its cognate DNA site by polyamides 1-3; format: binding; details: saturating 50 nM compound, Exd 0-100 nM
# Excerpt: (§5) Protein expression: Drosophila extradenticle (Exd) protein comprising the homeodomain and the extended fourth helix (residues 238-324), as well as ultrabithorax (Ubx) protein homeodomain (residues 233-313 of the Ubx isoform IVa) were expressed and purified after Passner & Aggarwal. The purified proteins Exd and Ubx were used for EMSA studies as described below.
# (§6) For the templates, the DNA oligonucleotides depicted in FIGS. 2a, 2b, 2c, and 2d were used, SEQ. ID NOS: 5, 6, 7, and 8, respectively. The DNA upper strand was annealed with the respective matching lower strand and both strands were 5′-labeled with γ-^32P-ATP and polynucleotide kinase, using standard procedures.
# Gel-shift experiments: The master mix contained 50% BSA/50% glycerol, reaction buffer (150 mM potassium glutamate, 50 mM HEPES pH 7.0, 1 mM DTT, and 5′-end labeled DNA (^32P) The final concentrations in the samples were 100 ng/μL BSA and 10% glycerol. Polyamides were kept in subdued lighting whenever possible. Upon addition of the polyamide to 1 pM DNA, the samples were incubated at 25 °C. for 30 minutes in a 20 μL reaction. Next, Exd was added to the samples and incubated for 1 hour at 4° C. A 9% acrylamide/3% glycerol gel was pre-run for 15 min prior to loading. In each lane 15 μL of a 20 μL reaction were loaded while the gel was running to prevent the samples from being diluted. The gels were run at 4° C./185 V. Gels were dried, exposed to a phosphorimager screen, and visualized using a Molecular Dynamics phosphorimager.
# FIGS. 3a and 3b: EMSA studies with polyamides 1-3, Exd and Ubx. In FIG. 3a, each polyamide binds and decreases the mobility of free DNA (lanes 2-18). […] In lanes 2-6,8-12, 14-18, Exd was added in following concentrations: 0, 3, 10, 30, 100 nM. Lanes 19 and 20 contained DNA bearing the Exd-Ubx binding site that was used in X-ray crystal structure determination (see methods above for sequence). In the reaction shown in lane 20, 275 nM Ubx and 30 nM Exd were incubated with DNA. […]
# [6] = test system: DNA duplex templates (FIG. 2a optimal; FIG. 2c mismatch in PA binding site); assay: EMSA: binding of polyamides to the DNA duplex templates; details: even at 100 nM concentrations
# Excerpt: as §6
# FIGS. 2a, 2b, 2c and 2d show depict the DNA duplexes used for the EMSA studies. The binding site for the Exd protein is marked by a box, the polyamide or Hox protein binding site is shown in boldface, FIG. 2a depicts the optimal template. FIG. 2b depicts a 2-bp mismatch in the Exd site. FIG. 2c depicts a 2-hp mismatch in the PA binding site. FIG. 2d depicts a composite Ubx-Exd binding site (see Passner et al. (1999) Nature, 397:714-719). […]
# Exd = target: T2, Exd; assay: Example 7 EMSA: recruitment of Exd by linker compounds; format: binding
# Procedure: The assays were performed with 50 nM of the conjugate pre-incubated with target DNA (thus to bind the anchor moiety to the target nucleic acid) followed by the addition and incubation with Exd.
# To determine the effects of longer linker on binding, the ability of compounds using linkers 1, 2 and 4 to recruit Exd at three different temperatures was investigated.
# double-stranded DNA = details: Behrens et al. (2001); cited from earlier work
# [7] = target: T3, Drosophila extradenticle (Exd) protein …; assay: EMSA, conjugate pre-incubated with target DNA, then Exd
# [8] = test system: duplex DNA with composite Ubx-Exd binding site (FIG. 2d); assay: EMSA: Ubx binding to its cognate DNA
# Procedure: (§7) Gel-shift studies with the Ubx protein were performed under identical buffer conditions using the duplex oligonucleotide listed in FIG. 2d. Ubx was added to the reaction mixture containing ^32P-endlabeled duplex DNA and incubated at 4° C. for 30 min. Subsequently Exd was added and the reaction was further incubated for 60 min at 4° C. The complexes were resolved under similar gel conditions as those described for DNA-polyamide-Exd complexes above. […] Under saturating concentrations of Ubx (325 nM) the Kd of Exd for the binary [Ubx-DNA] complex was 2-3 fold larger than the affinity of Exd for the polyamide-DNA binary complex.
# [9] = target: T4, extradenticle (Exd) protein; assay: EMSA: Exd binding to the binary Ubx-DNA complex; details: saturating concentrations of Ubx (325 nM)
# Procedure: as §5, §7
# [10] = target: Ultrabithorax (Ubx) homeodomain, isoform IVa (Drosophila, UniProt P83949-5 P83949-5:233-313); assay: EMSA; Ubx alone; 150 mM K glutamate, 50 mM HEPES pH 7.0, 4 C; details: label: 5'-32P both strands
# Chain of Ultrabithorax (Ubx) homeodomain, isoform IVa (P83949 other isoform, or with tags, fused parts or gaps): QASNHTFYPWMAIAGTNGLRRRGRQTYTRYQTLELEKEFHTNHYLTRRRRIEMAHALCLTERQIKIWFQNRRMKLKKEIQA
# Procedure: Gel-shift studies with the Ubx protein were performed under identical buffer conditions using the duplex oligonucleotide listed in FIG. 2d. Ubx was added to the reaction mixture containing ³²P-endlabeled duplex DNA and incubated at 4° C. for 30 min. […] The complexes were resolved under similar gel conditions as those described for DNA-polyamide-Exd complexes above.
# [11] = relative to matched site TGGTCA
molecule,measurement,setting,value
Cmpd 2 (FYPWMKG),Kd,[1],5.8 ± 0.8 nM
same,"Relative specificity (square brackets), TGGCCA",[2]; [11],1.4
same,Kd,"[2]; single base pair mismatch site, 22° C., TKMC buffer, read-out: Equilibrium Dissociation Constants Kd, TGGCCA",7.9 ± 1.6 nM
same,"Relative specificity (square brackets), TGGGCA",[3]; [11],17
same,Kd,"[3]; single base pair mismatch site, 22° C., TKMC buffer, read-out: Equilibrium Dissociation Constants Kd, TGGGCA",≥ 0.1 nM
same,"Relative specificity (square brackets), AGCTCA",[4]; [11],1.1
same,Kd,"[4]; single base pair mismatch site, 22° C., TKMC buffer, read-out: Equilibrium Dissociation Constants Kd, AGCTCA",6.4 ± 1.1 nM
same,ability to recruit Exd to its cognate DNA site (Exd binding),[5]; listed as Compound 2,capable of recruiting Exd to DNA
same,ability to recruit Exd to its cognate DNA site (Exd binding),[5]; listed as compound 2,binds DNA with very high affinity
same,binding to mutated template (polyamide-binding site eliminated),[6],did not bind
same,ability to recruit Exd,Exd; physiological temperatures (37° C.),fails to do so effectively
same,ability to recruit Exd,Exd; room temperature (23° C.),capable of recruiting Exd
Hoechst 33258 analog-KSPKKAKK polypeptide: Hoechst 33258 analog bonded to the N-terminus of the cationic polypeptide KSPKKAKK (Behrens et al.) ({Hoechst 33258 analog}-KSPKKAKK; reading uncertain),higher affinity for double-stranded DNA than the Hoechst analog itself,double-stranded DNA,approximately 10 fold
B1,binding result,[7],no binding (tested: 50 nM conjugate)
B2,affinity of Ubx for its DNA site lower than that of compound 2 for its respective site,[8],≥ 40 fold
same,Kd,[8]; 4° C.,200 ± 25 nM
same,"Kd of Exd for the binary [Ubx-DNA] complex, larger than for the polyamide-DNA binary complex",[9],2-3 fold
B3,Kd,[10],200 nM
